Experiments:
[1] = test system: UV induced apoptosis in mouse skin; settings: from cited literature; cited from earlier work
[2] = test system: MMP-1 expression in human dermal fibroblasts (HDFs); assay: MMP-1 expression by western blot of culture supernatants of UV-exposed human dermal fibroblasts pretreated with kinase inhibitors; assay type: cell-based; settings: UVB 60 mJ/cm^2, medium collected 24 hours after exposure
Method: Human dermal fibroblasts AG04058 (Coriell Institute for Medical Research, Camden, N.J.) were cultured and maintained in MEM containing glucose (4.5 mg/ml), glutamine (2 mM), […], and 10% heat-inactivated fetal bovine serum. For cell transfection, Fugene 6 transfection kit (Roche, Germany) was used to deliver Syk cDNA and the Saint-Red siRNA delivery system (Synvolux Therapeutics B.V., The Netherlands) was chosen to transfect Syk siRNA and control siRNA (Santa Cruz Biotechnology Inc., Santa Cruz, Calif.) into the cells. Cells were exposed to UVB (312 nm) (60 mJ/cm^2) by a Stratalinker UV Crosslinker (Stratagene, La Jolla, Calif.). Cell supernatants were collected 24 hrs after UV exposure, and prepared for MMP-1 expression assay.
Twenty-four hours after UV exposure, the culture media of HDFs were collected for MMP-1 assay. Based on OD280 measurement, equal amounts of proteins from the supernatants were mixed with 2× sample buffer, boiled for 5 min and chilled on ice. Samples were then subjected to […] and electrophoretically transferred to nitrocellulose membrane. The membrane was blocked with 5% dry milk in washing buffer. MMP-1 was detected with anti-MMP-1 antibody, and the results were visualized by an ECL detection system. For Syk protein and MAPK activation western blot assays, cell pellets were lysed in 1× Triton X-100 lysis buffer (1% Triton X-100, 5 mmol/L Hepes—KOH, pH 7.4) in the presence of protease and phosphatase inhibitors containing 5 mM EGTA, 3 mM Na orthovanadate, 2 mM phenylmethylsulfonyl fluoride, and […] aprotinin and leupeptin (Sigma Chemical Co., St. Louis, Mo.). Following centrifugation at 12,000 rpm for 30 min at 4° C., the cleared lysates were subjected to the same procedure as that followed for MMP-1 assay. Syk protein and MAPK activation were detected with anti-Syk antibody and anti-phospho-MAPK antibodies, respectively, by western blot. For the activation of Syk kinase assay, briefly, cell lysates were precleared by incubation with protein G plus agarose (Santa Cruz Biotechnology, Inc.), and then incubated overnight at 4° C. with anti-Syk antibody. Immune complexes would bind to protein G plus agarose in the lysis buffer. The agarose beads were washed three times with lysis buffer and the adsorbed proteins were eluted into the sample buffer. Tyrosine phosphorylation of Syk kinase (Syk activation) was determined with anti-phosphotyrosine antibody by western blot.
Human fibroblast cells (AG04058) were seeded into 24-well tissue culture dishes with MEM medium one day before the assay. Specific inhibitors for each kinase were added into each different well as indicated (FIG. 4). […]
The dose-response of piceatannol inhibition was assessed in HDFs exposed to UVB (60 mJ/cm^2) (FIG. 9B).

SMILES | UV induced apoptosis in mouse skin, in words [1] | inhibition of MMP-1 expression (western blot, image-density analysis) ([2]; piceatannol 1 μg/ml) | inhibition of MMP-1 expression (western blot, image-density analysis) ([2]; piceatannol 5 μg/ml) | inhibition of MMP-1 expression (western blot, image-density analysis) ([2]; piceatannol 10 μg/ml) | inhibition of MMP-1 expression (western blot, image-density analysis) ([2]; piceatannol 25 μg/ml)
Oc1ccc(-c2nc(-c3ccncc3)c(-c3ccc(F)cc3)[nH]2)cc1 [SB202190] | blocked |  |  |  | 
Oc1cc(O)cc(/C=C/c2ccc(O)c(O)c2)c1 [piceatannol] |  | no inhibition | no inhibition | 20% | 63%

— patent publication US9551710B2, “Signaling molecule involved in ultraviolet damage to skin” (Drexel University, priority 2010, dated 2017)
